Results: patent US9952300B2, “Dynamic contrast enhanced MRI method and agents for the assessment of the macromolecular transport within pathologic tissues” (BRACCO IMAGING S.P.A., priority 2012, dated 2018)
Where “and” joins values, the source holds several entries; their conditions need not be identical. Equal values may be shown once.

Assays:
[1] = tested on: PC-3 human prostate adenocarcinoma tumor; experiment: DCE-MRI of contrast agent kinetics in PC-3 tumors of Axitinib- or vehicle-treated mice (Example 3); assay type: in vivo, NCR athymic nude mice; details: contrast agent 100 μmol/kg i.v., one value per animal, trisodium salt
Description: The comparative test has been performed using NCR athymic nude mice implanted with PC-3 cells (a human prostate cancer line) and treated with Axitinib®, a VEGFRs inhibitor, (to modulate the tumor vascular permeability) by a protocol which timing is for instance schematized in FIG. 1. Scope of the test was to compare the image-based analysis of the albumin distribution in a human tumor model as extracted from the analysis of a time-serie of MRI images (with spatial resolution of around 110 μm) acquired with the method of the invention after injection of B22956/1 as contrast agent, and the distribution of FITC-BSA (Fluorescent isothiocyanate Bovine Serum Albumin) albumin inside and outside vessels histologically determined from fluorescent microscopy images on a scale of microns.
In particular, the trans-endothelial permeability (K^Trans) and the fractional plasma volume (fPV) were calculated from dynamic MR data by application of a bi-compartmental pharmacokinetic model, while the Initial Area Under the Curve (IAUCT) was calculated in several time windows, typically comprised between the contrast agent administration and the end of the MRI acquisition. The macromolecular penetration in tumors was, then, probed by fluorescently labelled Bovine Serum Albumin administered via tail vein after the last MRI session. Microscopic images were used to quantify the percentage of area stained by fluorescent albumin in the tumor, as a measure of the blood vessel density, using an automatic thresholding method. The albumin extravasation in the tumor extravascular space was assessed based on the fluorescence found out of the blood vessels from histological samples taken from both of tumor rim and core, for instance as schematized in FIG. 2. In particular, the albumin florescence was averaged over all pixels at a given distance from the nearest vessel and stored as a function of distance from the vessels walls, by use of an optimized procedure, for instance schematized in FIG. 3, providing both a quantification of the availability of the albumin in the extravascular space of the concerned tumor, namely the amount of the extravasated FITC-Albumin, and the decay of its concentration over the distance x from a nearest vessel, or, in other words, its actual distribution and dilution within the extracellular spaces (for instance as schematized in FIG. 4).
Human prostate adenocarcinoma cells (PC-3) were supplied by ATCC (American Type Culture Collection) and grown in Hams F-12 medium supplemented with 10% foetal bovine serum, 2 mM glutamine, 100 IU/mL penicillin and 100 μg/mL streptomycin (all from Lonza, Verviers, Belgium). […] Tumour development was followed by palpation and measured by calliper every 2-3 days until the end of the experiment. […]

[2] = tested on: WM1552/5 melanoma xenografts; experiment: DCE-MRI with B22956/1 in WM1552/5 melanoma xenografts 24 h after PTX (Example 4); assay type: in vivo, NCr-nu/nu mice; details: WM1552/5 tumor rim and core, 24 h after PTX 20 mg/kg i.v.
Description: Indeed, the potential of non-covalent protein binding contrast agents according the invention to provide in vivo suitable estimates of the effect promoted by a therapeutic agent such as, for instance, an EPR-enhancing agent, i.e. an agent devoted to enhance the uptake of the co-administered macromolecular drug in the tumor area, has been investigated by means of Dynamic Contrast Enhanced MRI tests performed in vivo with B22956/1, used as representative agent according to the invention, on melanoma cancer model xenografts in nude mice treated with vehicle or Paclitaxel (PTX). […] Jain, R. K. & Stylianopoulos, T. Nat. Rev. Clin. Oncol. 2010, 7: 653-664).
Six- to eight-week-old female NCr-nu/nu mice, obtained from Harlan (Correzzana, Italy) were maintained under specific pathogen-free conditions and handled using aseptic procedures throughout the whole study. […]
PTX- and vehicle-treated nude mice bearing WM1552/5 melanoma xenografts (N=4 mice per group) were analyzed by DCE-MRI 24 h after PTX administration. […] Pre-contrast T1 values in tumors were measured using a multislice variable flip-angle FLASH. […]
Differences in the kinetics of distribution of the contrast agent (DCE-MRI) were analyzed by Mann Whitney U test.

SMILES	kTrans (Transfer Constant) ([1]; tumor core)	kTrans (Transfer Constant) ([1]; tumor rim)	K^trans measured with B22956/1, pre-treated versus vehicle [2]	fractional plasma volume fPV (%) measured with B22956/1, pre-treated versus vehicle [2]
C[C@H](CCC(=O)[O-])[C@H]1CC[C@H]2[C@@H]3CC[C@@H]4C[C@@H](NC(=O)CC[C@@H](C(=O)[O-])N(CCN(CC(=O)[O-])CC(=O)[O-])CCN(CC(=O)[O-])CC(=O)[O-])CC[C@]4(C)[C@H]3C[C@H](O)[C@]12C.[Gd+3].[Na+].[Na+].[Na+] [B22956/1, Gadocoletic acid trisodium salt]	1.09 mL\(min × g) × 100 and 0.98 mL\(min × g) × 100 (2×) and 0.40 mL\(min × g) × 100 (2×) and 1.81 mL\(min × g) × 100 and 0.31 mL\(min × g) × 100 and 0.95 mL\(min × g) × 100 and 0.44 mL\(min × g) × 100 and 1.77 mL\(min × g) × 100 and 1.82 mL\(min × g) × 100 and 1.57 mL\(min × g) × 100 and 1.29 mL\(min × g) × 100 and 1.85 mL\(min × g) × 100 and 1.20 mL\(min × g) × 100	2.45 mL\(min × g) × 100 and 1.91 mL\(min × g) × 100 (2×) and 0.83 mL\(min × g) × 100 and 2.30 mL\(min × g) × 100 and 1.06 mL\(min × g) × 100 and 1.76 mL\(min × g) × 100 and 1.33 mL\(min × g) × 100 and 3.00 mL\(min × g) × 100 and 1.68 mL\(min × g) × 100 and 2.77 mL\(min × g) × 100 and 2.15 mL\(min × g) × 100 and 2.37 mL\(min × g) × 100 and 1.17 mL\(min × g) × 100 and 3.22 mL\(min × g) × 100 and 2.24 mL\(min × g) × 100	–	–
CC(=O)O[C@H]1C(=O)[C@@]2(C)[C@H]([C@H](OC(=O)c3ccccc3)[C@]3(O)C[C@H](OC(=O)[C@H](O)[C@@H](NC(=O)c4ccccc4)c4ccccc4)C(C)=C1C3(C)C)[C@]1(OC(C)=O)CO[C@@H]1C[C@@H]2O [PTX, Paclitaxel]	–	–	statistically significant increase	statistically significant increase
